In patent US20090209503A1, “COLONIC DELIVERY THERAPEUTIC AGENTS FOR INFLAMMATORY BOWEL DISEASE” (AJINOMOTO CO. INC., priority 2005, published 2009):
Values joined by “and” are separate entries in the source; they are usually repeats but may differ in a detail not shown here. Equal values may be shown once.

Assays:
[1] = tested on: DSS model in mice (ulcerative colitis developed by 5% DSS water); experiment: Drug efficacy test by enema administration of glutamine on DSS model in mice; assay type: in vivo, mouse; details: sixth day after start of drinking DSS water, FIG. 1
Protocol: 5% DSS water (dissolving dextran sulfate sodium in tap water) was drank ad lib by a male C57BL/6 Cr Slc mouse of 8 weeks old, and it developed ulcerative colitis. From one day before starting drinking of DSS water, L-glutamine was administered via the large intestinal route to the mouse once a day. An enema agent (solution) having the composition of 0.5% (w/v) carboxymethylcellulose—sodium was used as the enema agent. As the disease activity index, each average value of body weight scores, blood feces scores and diarrhea scores was calculated referring to the report of HS. Cooper et al. (Laboratory Investigation 1993; 69(2): 238).

[2] = tested on: patients with ulcerative colitis; experiment: Example 1: 2 g L-glutamine enema, frequencies of bowel movements and diarrhea, blood feces scores; assay type: in vivo, humans; design: key to Blood feces score, Aft. admin.: blood feces score averaged per day: 0 = none, 1 = less, 3 = a lot
Protocol: Further, 60 mL of an enema agent prepared by adding 2 g of L-glutamine to sterilized water was administered via the large intestinal route to the patients with ulcerative colitis having the same symptoms as mentioned above (Case Nos. 5 and 9 to 14).
In addition, the patients with ulcerative colitis of Comparative Example and Example take a 5-ASA agent(s) (“Pentasas” or “Salazopyrin®”) as an oral agent conforming to dosage and administration.
The frequencies of bowel movements and diarrhea, and blood feces scores were measured of these patients.

[3] = tested on: patients with ulcerative colitis; experiment: Comparative Example 1: 10 g L-glutamine via the large intestinal route, frequencies of bowel movements and diarrhea; assay type: in vivo, humans
Protocol: 10 g of L-glutamine was added to 60 mL of “Predonema®” Enema, and the mixture was administered via the large intestinal route to patients with ulcerative colitis. The frequencies of bowel movements and diarrhea were measured. […] Meanwhile, the patients were treated with “Predonema®” from Day 1 to Day 14, and 60 mL of “Predonema®” Enema prepared by adding 10 g of L-glutamine thereto was administered via the large intestinal route to the patients from Day 15 to Day 28.

rat models of TNBS = details: 0.25 to 0.4 g/kg via the large intestinal route; Non-patent Literatures 13 and 14; cited from earlier work
[4] = tested on: epithelial injuries in the upper digestive tracts such as the stomach and the duodenum; details: dose of about 2 g a day; Non-patent Literatures 8 and 9; cited from earlier work
[5] = 2 g L-glutamine enema, with or without Predonema
[6] = 2 g L-glutamine enema, oral 5-ASA agent

Question: Which results are given for NC(=O)CC[C@H](N)C(=O)O [Gln, L-glutamine]?
Answer: disease activity index (average of body weight, blood feces and diarrhea scores) versus vehicle-treated group ([1]; 30 mg/kg once a day via the large intestinal route): no significant difference; disease activity index (average of body weight, blood feces and diarrhea scores) versus vehicle-treated group ([1]; 100 mg/kg once a day via the large intestinal route): no significant difference; frequency of bowel movements (summary of Table 1) [2, 5]: maintained the frequency of bowel movements; improvement in blood feces (summary of Table 1) [2, 5]: improvement in blood feces was recognized in all cases; diarrhea (summary of Table 1) ([2]; 2 g L-glutamine enema, as shown in Case Nos. 4 and 5): able to improve diarrhea; cases in which the blood feces improved [2, 6]: 3 out of 7; improvement rate (blood feces) [2, 6]: 43%; Blood feces score, Aft. admin. ([2]; 2 g L-glutamine in 60 mL enema, admin. period 14-39 per case, oral 5-ASA agent, single patient, average per day, no blood feces: 0, less: 1, a lot: 3): 1.3 and 1.0 (2×) and 0.8 and 0.9; Freq. of bowel movement, Aft. admin. ([2]; 2 g L-glutamine in 60 mL enema, large intestinal route, admin. period 14-39 per case, all with oral 5-ASA agent, single patient): 5.0 per a day and 5.3 per a day and 2.3 per a day and 13.9 per a day and 14.1 per a day; freq. of diarrhea, Aft. admin. ([2]; 2 g L-glutamine in 60 mL enema, large intestinal route, admin. period 14-39 per case, all with oral 5-ASA agent, single patient, number in ( )): 0.1 per a day and 0.4 per a day and 0.0 per a day (2×) and 2.6 per a day; course of administration (stopped for aggravation of symptoms after starting administration) ([2]; 2 g L-glutamine in 60 mL sterilized water enema, oral 5-ASA agent, single patient): Stopped for aggravation; Freq. of bowel movement, Bef. admin. ([2]; baseline before administration, single patient (Case No.), average value per day of the period): 4.5 per a day and 5.4 per a day and 2.5 per a day and 4.2 per a day and 6.7 per a day; freq. of diarrhea, Bef. admin. ([2]; baseline before administration, single patient (Case No.), number in ( )): 2.0 per a day and 0.9 per a day and 0.0 per a day (2×) and 1.5 per a day; Blood feces score, Bef. admin. ([2]; baseline before administration, single patient, average per day, no blood feces: 0, less: 1, a lot: 3): 2.2 and 1.3 (2×) and 0.8 and 1.0; frequency of bowel movements ([3]; 10 g L-glutamine added to 60 mL Predonema Enema, Day 15 to Day 28, after Predonema alone Day 1 to Day 14, oral 5-ASA agent, FIG. 2): increased; blood feces (observation of feces) ([3]; 10 g L-glutamine added to 60 mL Predonema Enema, Day 15 to Day 28, oral 5-ASA agent): improving effect of blood feces was recognized; frequency of bowel movements ([3]; 10 g of L-glutamine via the large intestinal route to humans): frequency of bowel movements increases; effectiveness in animal enteritis models (rat models of TNBS): effective; effectiveness against epithelial injuries in the upper digestive tracts [4]: effective
